Measured values published in US11965039B2, “Compstatin analogues and their medical uses” (priority 2018, dated 2024).
Where two headings read alike, the source gives them in different places. Positions of bridges follow the written chain, without caps; N, C: chain ends. Non-standard residues stand in square brackets, D forms with d. Residues, ends and D or L forms follow the SMILES beside them. *: point of attachment. Trp(1-Me) = Cn1cc(C[C@H](N)C(=O)O)c2ccccc21; C18 diacid = O=C(O)CCCCCCCCCCCCCCCCC(=O)*; 2Nal = N[C@@H](Cc1ccc2ccccc2c1)C(=O)O; Sar = CNCC(=O)O

Experiments:
[1] = Solubility test at 10 mg/mL (visual inspection and light scattering); type: physicochemical; settings: for Solubility, Condition 1: Acetate pH 4; for Solubility, Condition 2: Acetate pH 5; for Solubility, Condition 3: Phosphate pH 6; for Solubility, Condition 4: Phosphate pH 7; for Solubility, Condition 5: Phosphate pH 7.5
[2] = system: classical complement pathway; assay: In vitro haemolysis assay (inhibition of classical complement pathway); type: cell-based, human; settings: human serum, sensitized sheep red blood cells
Outline: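 Compound dilutions preincubated 15 min at room temperature with diluted human serum (titrated per batch for 70-90% maximal haemolysis), then antibody-sensitized sheep RBC (10^7/well) added for 30 min at 37 °C in Tris/casein buffer, pH 7.4. Stopped with EDTA; haemolysis read at 405 nm; IC50 by 4PL fit.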

[3] = Table 3, given as upper bounds, read-out: IC50, inhibition of hemolysis

SMILES: CC[C@H](C)[C@@H]1NC(=O)[C@@H](NC(=O)[C@H](Cc2ccccc2)NC(=O)[C@H](C)NC(=O)[C@H](CO)NC(=O)CNC(=O)[C@H](CCC(=O)O)NC(C)=O)CSSC[C@@H](C(=O)N[C@H](C(=O)N[C@@H](CCC(=O)O)C(N)=O)[C@@H](C)O)NC(=O)[C@H](CCCNC(=N)N)NC(=O)[C@H](Cc2c[nH]cn2)NC(=O)[C@H](CCC(=O)O)NC(=O)CNC(=O)[C@H](Cc2c[nH]c3ccccc23)NC(=O)[C@H](CC(=O)O)NC(=O)[C@H](CCC(N)=O)NC(=O)[C@H](Cc2cn(C)c3ccccc23)NC1=O [Compound 57] (Ac-EGSAFCI[Trp(1-Me)]QDWGEHRCTE-NH2; disulfide 6-16)
- Solubility, Condition 1 [1]: − (“−” denotes lack of solubility at the given condition, as UV absorbance at 340 nm exceeds 0.1 AU and/or it is visibly turbid or contains particles)
- Solubility, Condition 2 [1]: − (“−” denotes lack of solubility at the given condition, as UV absorbance at 340 nm exceeds 0.1 AU and/or it is visibly turbid or contains particles)
- Solubility, Condition 3 [1]: + (“+” denotes solubility at the given condition, as determined by UV absorbance being less than 0.1 AU at 340 nm and the sample being clear when manually inspected)
- Solubility, Condition 4 [1]: + (“+” denotes solubility at the given condition, as determined by UV absorbance being less than 0.1 AU at 340 nm and the sample being clear when manually inspected)
- Solubility, Condition 5 [1]: + (“+” denotes solubility at the given condition, as determined by UV absorbance being less than 0.1 AU at 340 nm and the sample being clear when manually inspected)
- IC50 [2, 3]: < 100 nM

SMILES: CC[C@H](C)[C@H](NC(C)=O)C(=O)N[C@H]1CSSC[C@@H](C(=O)N[C@H](C(N)=O)[C@@H](C)O)NC(=O)[C@H](CCCNC(=N)N)NC(=O)[C@H](Cc2c[nH]cn2)NC(=O)[C@H](C)NC(=O)CNC(=O)[C@H](Cc2c[nH]c3ccccc23)NC(=O)[C@H](CC(=O)O)NC(=O)[C@H](CCC(N)=O)NC(=O)[C@H](Cc2c[nH]c3ccccc23)NC(=O)[C@H]([C@@H](C)CC)NC1=O [Compound 1] (Ac-ICIWQDWGAHRCT-NH2; disulfide 2-12)
- Solubility, Condition 1 [1]: + (“+” denotes solubility at the given condition, as determined by UV absorbance being less than 0.1 AU at 340 nm and the sample being clear when manually inspected)
- Solubility, Condition 2 [1]: − (“−” denotes lack of solubility at the given condition, as UV absorbance at 340 nm exceeds 0.1 AU and/or it is visibly turbid or contains particles)
- Solubility, Condition 3 [1]: − (“−” denotes lack of solubility at the given condition, as UV absorbance at 340 nm exceeds 0.1 AU and/or it is visibly turbid or contains particles)
- Solubility, Condition 4 [1]: − (“−” denotes lack of solubility at the given condition, as UV absorbance at 340 nm exceeds 0.1 AU and/or it is visibly turbid or contains particles)
- Solubility, Condition 5 [1]: − (“−” denotes lack of solubility at the given condition, as UV absorbance at 340 nm exceeds 0.1 AU and/or it is visibly turbid or contains particles)
- IC50 ([2]; Table 2, read-out: CP hemolysis IC50): 150 nM
- IC50 [2, 3]: < 250 nM

SMILES: CC[C@H](C)[C@@H]1NC(=O)[C@@H](NC(=O)[C@H](Cc2ccc(O)cc2)NC(C)=O)CSSC[C@@H](C(=O)N[C@H](C(=O)NCC(=O)N[C@@H](C)C(=O)N[C@@H](CCC(=O)O)C(=O)N[C@@H](CO)C(N)=O)[C@@H](C)O)NC(=O)[C@H](CCCNC(=N)N)NC(=O)[C@H](Cc2c[nH]cn2)NC(=O)[C@H](CCC(=O)O)NC(=O)CNC(=O)[C@H](Cc2c[nH]c3ccccc23)NC(=O)[C@H](CC(=O)O)NC(=O)[C@H](CCC(N)=O)NC(=O)[C@H](Cc2ccc3ccccc3c2)NC1=O [Compound 65] (Ac-YCI[2Nal]QDWGEHRCTGAES-NH2; disulfide 2-12)
- Solubility, Condition 1 [1]: − (“−” denotes lack of solubility at the given condition, as UV absorbance at 340 nm exceeds 0.1 AU and/or it is visibly turbid or contains particles)
- Solubility, Condition 2 [1]: − (“−” denotes lack of solubility at the given condition, as UV absorbance at 340 nm exceeds 0.1 AU and/or it is visibly turbid or contains particles)
- Solubility, Condition 3 [1]: + (“+” denotes solubility at the given condition, as determined by UV absorbance being less than 0.1 AU at 340 nm and the sample being clear when manually inspected)
- Solubility, Condition 4 [1]: + (“+” denotes solubility at the given condition, as determined by UV absorbance being less than 0.1 AU at 340 nm and the sample being clear when manually inspected)
- Solubility, Condition 5 [1]: + (“+” denotes solubility at the given condition, as determined by UV absorbance being less than 0.1 AU at 340 nm and the sample being clear when manually inspected)
- IC50 [2, 3]: < 100 nM

SMILES: CC[C@H](C)[C@@H]1NC(=O)[C@@H](NC(=O)[C@H](Cc2ccc(O)cc2)NC(C)=O)CSSC[C@@H](C(=O)N[C@H](C(=O)N[C@@H](CCC(=O)O)C(=O)N[C@@H](C)C(=O)NCC(=O)N[C@@H](CO)C(N)=O)[C@@H](C)O)NC(=O)[C@H](CCCNC(=N)N)NC(=O)[C@H](Cc2c[nH]cn2)NC(=O)[C@H](CCC(=O)O)NC(=O)CNC(=O)[C@H](Cc2c[nH]c3ccccc23)NC(=O)[C@H](CC(=O)O)NC(=O)[C@H](CCC(N)=O)NC(=O)[C@H](Cc2cn(C)c3ccccc23)NC1=O [Compound 68] (Ac-YCI[Trp(1-Me)]QDWGEHRCTEAGS-NH2; disulfide 2-12)
- Solubility, Condition 1 [1]: − (“−” denotes lack of solubility at the given condition, as UV absorbance at 340 nm exceeds 0.1 AU and/or it is visibly turbid or contains particles)
- Solubility, Condition 2 [1]: − (“−” denotes lack of solubility at the given condition, as UV absorbance at 340 nm exceeds 0.1 AU and/or it is visibly turbid or contains particles)
- Solubility, Condition 3 [1]: + (“+” denotes solubility at the given condition, as determined by UV absorbance being less than 0.1 AU at 340 nm and the sample being clear when manually inspected)
- Solubility, Condition 4 [1]: + (“+” denotes solubility at the given condition, as determined by UV absorbance being less than 0.1 AU at 340 nm and the sample being clear when manually inspected)
- Solubility, Condition 5 [1]: + (“+” denotes solubility at the given condition, as determined by UV absorbance being less than 0.1 AU at 340 nm and the sample being clear when manually inspected)
- IC50 [2, 3]: < 100 nM

SMILES: CC[C@H](C)[C@@H]1NC(=O)[C@@H](NC(=O)[C@H](Cc2ccc(O)cc2)NC(=O)[C@H](CCC(=O)O)NC(=O)[C@H](CO)NC(=O)CNC(=O)[C@H](CCC(=O)O)NC(=O)CCCCCCCCCCCCCCCCC(=O)O)CSSC[C@@H](C(=O)N(C)CC(=O)N[C@@H](CCC(=O)O)C(N)=O)NC(=O)[C@H](CCCNC(=N)N)NC(=O)[C@H](Cc2c[nH]cn2)NC(=O)[C@H](CCC(=O)O)NC(=O)CNC(=O)[C@H](Cc2c[nH]c3ccccc23)NC(=O)[C@H](CC(=O)O)NC(=O)[C@H](CCC(N)=O)NC(=O)[C@H](Cc2cn(C)c3ccccc23)NC1=O [Compound 108] ({C18 diacid}-EGSEYCI[Trp(1-Me)]QDWGEHRC[Sar]E-NH2; disulfide 6-16)
- Solubility, Condition 1 [1]: − (“−” denotes lack of solubility at the given condition, as UV absorbance at 340 nm exceeds 0.1 AU and/or it is visibly turbid or contains particles)
- Solubility, Condition 2 [1]: − (“−” denotes lack of solubility at the given condition, as UV absorbance at 340 nm exceeds 0.1 AU and/or it is visibly turbid or contains particles)
- Solubility, Condition 3 [1]: + (“+” denotes solubility at the given condition, as determined by UV absorbance being less than 0.1 AU at 340 nm and the sample being clear when manually inspected)
- Solubility, Condition 4 [1]: + (“+” denotes solubility at the given condition, as determined by UV absorbance being less than 0.1 AU at 340 nm and the sample being clear when manually inspected)
- Solubility, Condition 5 [1]: + (“+” denotes solubility at the given condition, as determined by UV absorbance being less than 0.1 AU at 340 nm and the sample being clear when manually inspected)
- IC50 [2, 3]: < 500 nM

SMILES: CC[C@H](C)[C@H](NC(=O)[C@H](C)NC(=O)[C@H](CO)NC(=O)[C@H](CO)NC(=O)[C@H](CCC(=O)O)NC(C)=O)C(=O)N[C@H]1CSSC[C@@H](C(=O)N[C@H](C(=O)NCC(=O)N[C@@H](C)C(=O)N[C@@H](CCC(=O)O)C(=O)N[C@@H](CO)C(N)=O)[C@@H](C)O)NC(=O)[C@H](CCCNC(=N)N)NC(=O)[C@H](Cc2c[nH]cn2)NC(=O)[C@H](CCC(=O)O)NC(=O)CNC(=O)[C@H](Cc2c[nH]c3ccccc23)NC(=O)[C@H](CC(=O)O)NC(=O)[C@H](CCC(N)=O)NC(=O)[C@H](Cc2c[nH]c3ccccc23)NC(=O)[C@H]([C@@H](C)CC)NC1=O [Compound 14] (Ac-ESSAICIWQDWGEHRCTGAES-NH2; disulfide 6-16)
- Solubility, Condition 1 [1]: + (“+” denotes solubility at the given condition, as determined by UV absorbance being less than 0.1 AU at 340 nm and the sample being clear when manually inspected)
- Solubility, Condition 2 [1]: − (“−” denotes lack of solubility at the given condition, as UV absorbance at 340 nm exceeds 0.1 AU and/or it is visibly turbid or contains particles)
- Solubility, Condition 3 [1]: − (“−” denotes lack of solubility at the given condition, as UV absorbance at 340 nm exceeds 0.1 AU and/or it is visibly turbid or contains particles)
- Solubility, Condition 4 [1]: + (“+” denotes solubility at the given condition, as determined by UV absorbance being less than 0.1 AU at 340 nm and the sample being clear when manually inspected)
- Solubility, Condition 5 [1]: + (“+” denotes solubility at the given condition, as determined by UV absorbance being less than 0.1 AU at 340 nm and the sample being clear when manually inspected)
- IC50 [2, 3]: < 100 nM
